US20170188607A1, “SOLUBILIZATION OF A SWEET MODULATOR AND FLAVOR” (Firmenich SA, priority 2014, published 2017)

Test: Crystallization onset of supersaturated solution stirred at 20° C., followed in a Crystalline PV device with CCD cameras
Type: physicochemical
Procedure: (§1) A concentrated solution 2 of (S)-1-(3-(((4-amino-2,2-dioxido-1H-benzo[c][1,2,6]thiadiazin-5-yl)oxy)methyl)piperidin-1-yl)-3-methylbutan-1-one at 1% (w/w) (10000 ppm) was prepared in water. The pH was adjusted to 11 using NaOH to form the (S)-1-(3-(((4-amino-2,2-dioxido-1H-benzo[c][1,2,6]thiadiazin-5-yl)oxy)methyl)piperidin-1-yl)-3-methylbutan-1-one sodium salt, and a homogeneous solution was obtained. Next, a syrup was prepared by mixing an aqueous solution of HFCS, citric acid and deionized water. […] of 100 ppm of (S)-1-(3-(((4-amino-2,2-dioxido-1H-benzo[c][1,2,6]thiadiazin-5-yl)oxy)methyl)piperidin-1-yl)-3-methylbutan-1-one, i.e. about 15 times above the intrinsic solubility of the compound at 20° C. The sample was stirred at 20° C. and crystallization was followed in a Crystalline PV device equipped with CCD cameras. Crystallization started after about 530 minutes.
as §1, with “acid, HydroxyPropyl Cellulose (HPC) 100k” for “acid”, “deionized water. The final syrup contained 43% fructose, 1% citric acid, 0.05% HPC and 55.95%” for “deionized”, “cameras.” for “cameras. Crystallization started after about 530 minutes.”
A concentrated solution 2 of (S)-1-(3-(((4-amino-2,2-dioxido-1H-benzo[c][1,2,6]thiadiazin-5-yl)oxy)methyl)piperidin-1-yl)-3-methylbutan-1-one at 1% (w/w) (10000 ppm) was prepared in water. The pH was adjusted to 11 using NaOH to form the (S)-1-(3-(((4-amino-2,2-dioxido-1H-benzo[c][1,2,6]thiadiazin-5-yl)oxy)methyl)piperidin-1-yl)-3-methylbutan-1-one sodium salt, and a homogeneous solution was obtained. Next, a citric acid buffer solution was prepared by mixing 50 mM citric acid in deionised water (pH=2.8). An aliquot of solution 2 was diluted 100 times with the buffer solution to yield a final concentration of 100 ppm of (S)-1-(3-(((4-amino-2,2-dioxido-1H-benzo[c][1,2,6]thiadiazin-5-yl)oxy)methyl)piperidin-1-yl)-3-methylbutan-1-one, i.e. about 15 times above the intrinsic solubility of the compound at 20° C. The sample was stirred at 20° C. and crystallization was followed in a Crystalline PV device equipped with CCD cameras.
A concentrated solution 2 of (S)-1-(3-(((4-amino-2,2-dioxido-1H-benzo[c][1,2,6]thiadiazin-5-yl)oxy)methyl)piperidin-1-yl)-3-methylbutan-1-one at 1% (w/w) (10000 ppm) was prepared in water. The pH was adjusted to 11 using NaOH to form the (S)-1-(3-(((4-amino-2,2-dioxido-1H-benzo[c][1,2,6]thiadiazin-5-yl)oxy)methyl)piperidin-1-yl)-3-methylbutan-1-one sodium salt, and a homogeneous solution was obtained. Next, a citric acid buffer solution was prepared by mixing 50 mM citric acid and carboxymethyl cellulose (CMC) in deionised water (pH=2.8). The final water solution contained 50 mM citric acid and 0.05% CMC. […]

time until crystallization started (Example 5 (comparative): 100 ppm, syrup 43 Brix (43% fructose, 1% citric acid), no polymer): about 530 minutes
time until first crystals were observed (Example 6: 100 ppm, syrup 43 Brix with 0.05% HPC 100k): about 3520 minutes
time until first crystals were observed (Example 7 (comparative): 100 ppm, 50 mM citric acid buffer pH 2.8, no polymer): about 166 minutes
time until first crystals were observed (Example 8: 100 ppm, 50 mM citric acid buffer pH 2.8 with 0.05% CMC): about 466 minutes
Structure (SMILES): CC(C)CC(=O)N1CCC[C@H](COc2cccc3c2C(N)=NS(=O)(=O)N3)C1 [(S)-1-(3-(((4-amino-2,2-dioxido-1H-benzo[c][1,2,6]thiadiazin-5-yl)oxy)methyl)piperidin-1-yl)-3-methylbutan-1-one]
crystallization observation (Example 9: 100 ppm, syrup 43 Brix with 0.05% HPMC 100k): No crystallization was observed after seven days
